From patent publication US5869484A, “Phenylcarbamate derivatives suitable to the use as anticholinesterase substances” (priority 1994, dated 1999)
Like-named read-outs stand apart in the source and are kept apart here.

Key:
AChE hRBC = molecular target: T1, AChE hRBC (Homo sapiens, UniProt P22303); test: biochemical
T1 construct: purchased Sigma Chemical; host or cells: human erythrocytes
Description: (§1) The incubation time between enzyme and product used for the determinations has been 10'.
(§2) The acetylcholinesterase from human erythrocytes (AChE hRBC), the acetylcholinesterase from Electric Eel (AChE E.eel) and the butyrylcholinesterase from human serum (BuChE hserum) coming from the Sigma Chemical have been used.

[1] = Acute toxicity (single administration) in mouse; settings: in vivo
acetylcholinesterase = settings: prior art; cited from earlier work
[2] = prior art; cited from earlier work
[3] = test system: mental pathologies / Alzheimer's disease; settings: prior art, clinical studies; cited from earlier work
AChE E. eel = molecular target: T2, AChE E. eel (Electrophorus electricus, UniProt O42275); test: biochemical; design: species or system Electric Eel
T2 construct: purchased Sigma Chemical
Description: as §1, §2

BuChE hserum = molecular target: T3, BuChE hserum (Homo sapiens, UniProt P06276); test: Inhibition of butyrylcholinesterase from human serum (Ellman method); format: biochemical
T3 construct: purchased Sigma Chemical; host or cells: human serum
Description: as §1, §2

[4] = Acute toxicity (single administration) in rat; settings: in vivo
[5] = test system: amnesic failure induced by scopolamine; test: Passive Avoidance test, scopolamine-induced amnesic failure, rats; format: in vivo; settings: 0.5-1-2-4 mg/kg per os
[6] = prior art; cited from earlier work; remark: listed apart in the source
[7] = iv, read-out: Toxicity tests (LD50), mouse iv
[8] = po, os, read-out: Toxicity tests (LD50), mouse os
[9] = po, os, read-out: Toxicity tests (LD50), rat os

T1 sequence (P22303 32-617 isoform P22303-2 limits assumed): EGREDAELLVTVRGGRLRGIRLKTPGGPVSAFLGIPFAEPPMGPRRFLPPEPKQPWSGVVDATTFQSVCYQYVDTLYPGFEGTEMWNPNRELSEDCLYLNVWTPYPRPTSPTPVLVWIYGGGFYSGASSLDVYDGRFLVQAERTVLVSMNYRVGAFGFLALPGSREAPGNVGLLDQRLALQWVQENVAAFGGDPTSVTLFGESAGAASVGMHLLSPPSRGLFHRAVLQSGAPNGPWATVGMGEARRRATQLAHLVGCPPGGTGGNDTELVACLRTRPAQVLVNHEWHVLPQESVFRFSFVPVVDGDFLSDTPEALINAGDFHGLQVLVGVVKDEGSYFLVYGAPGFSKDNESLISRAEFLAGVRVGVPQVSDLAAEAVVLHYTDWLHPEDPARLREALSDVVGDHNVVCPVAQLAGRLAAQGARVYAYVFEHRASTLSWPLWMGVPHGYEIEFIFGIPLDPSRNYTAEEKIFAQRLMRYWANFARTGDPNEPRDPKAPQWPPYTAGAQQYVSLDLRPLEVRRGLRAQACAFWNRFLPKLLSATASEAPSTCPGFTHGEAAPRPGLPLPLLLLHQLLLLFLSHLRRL
T2 sequence (O42275 24-633): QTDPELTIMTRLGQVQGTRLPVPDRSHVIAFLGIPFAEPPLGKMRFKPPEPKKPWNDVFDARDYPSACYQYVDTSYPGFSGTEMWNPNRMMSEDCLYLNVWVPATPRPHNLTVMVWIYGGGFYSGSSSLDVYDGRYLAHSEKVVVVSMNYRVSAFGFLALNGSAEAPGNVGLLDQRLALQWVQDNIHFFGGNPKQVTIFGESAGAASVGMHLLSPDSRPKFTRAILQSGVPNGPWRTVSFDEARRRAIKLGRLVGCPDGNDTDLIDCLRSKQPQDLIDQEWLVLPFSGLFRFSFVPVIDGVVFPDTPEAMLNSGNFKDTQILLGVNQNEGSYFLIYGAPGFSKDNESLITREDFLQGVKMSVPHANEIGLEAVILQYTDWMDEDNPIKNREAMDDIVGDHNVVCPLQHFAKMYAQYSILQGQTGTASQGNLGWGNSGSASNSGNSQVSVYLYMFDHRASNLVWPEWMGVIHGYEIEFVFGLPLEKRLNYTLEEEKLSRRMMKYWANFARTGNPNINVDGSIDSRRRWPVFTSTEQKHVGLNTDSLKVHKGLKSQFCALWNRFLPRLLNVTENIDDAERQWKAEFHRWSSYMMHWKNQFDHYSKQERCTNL
T3 sequence (P06276 29-602): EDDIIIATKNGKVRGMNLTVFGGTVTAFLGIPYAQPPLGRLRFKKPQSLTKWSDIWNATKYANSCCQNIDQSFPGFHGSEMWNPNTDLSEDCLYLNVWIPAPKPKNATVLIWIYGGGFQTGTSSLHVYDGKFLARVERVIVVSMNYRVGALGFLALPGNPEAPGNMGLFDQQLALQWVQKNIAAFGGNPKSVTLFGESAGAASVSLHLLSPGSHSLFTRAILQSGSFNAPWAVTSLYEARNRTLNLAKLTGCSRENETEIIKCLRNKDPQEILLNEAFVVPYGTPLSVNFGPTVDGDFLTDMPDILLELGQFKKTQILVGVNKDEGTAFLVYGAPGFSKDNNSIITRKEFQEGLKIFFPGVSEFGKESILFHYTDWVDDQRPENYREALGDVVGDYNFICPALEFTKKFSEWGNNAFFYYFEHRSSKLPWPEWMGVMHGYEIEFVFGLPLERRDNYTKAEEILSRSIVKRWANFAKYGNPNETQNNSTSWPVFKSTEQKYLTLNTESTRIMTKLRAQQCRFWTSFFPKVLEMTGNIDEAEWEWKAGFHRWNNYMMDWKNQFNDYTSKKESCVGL

Structure (SMILES)	potency compared with eptastigmine, physostigmine or tacrine (AChE hRBC)	LD50 [1, 7] [mg/kg]	LD50 [1, 8] [mg/kg]	inhibition of acetylcholinesterase (acetylcholinesterase)	pharmacokinetic characteristics [2]	efficacy in patients [3]	IC50 (AChE E. eel) [nM]	IC50 (AChE hRBC) [nM]	potency compared with eptastigmine, physostigmine or tacrine (AChE hRBC; comparison from Table 1)	IC50 (BuChE hserum) [nM]	LD50 [4, 9] [mg/kg]	reduction of amnesic failure induced by scopolamine in the Passive Avoidance test [5]	IC50 (AChE E. eel; incubation time 10', read-out: Inhibition of the cholinesterase (IC50 M), AChE E. eel) [nM]	LD50 ([4]; iv, read-out: Toxicity tests (LD50), rat iv) [mg/kg]	side-effects [6]
CNC(=O)Oc1ccc2c(c1)[C@]1(C)CCN(C)[C@@H]1N2C [Physostigmine, reference compound]	superior to that of tacrine	0.6	3.4	powerful natural inhibitor of the acetylcholinesterase	unfavourable pharmacokinetic characteristics	beneficial results in the treatment of the patients affected by mental pathologies	–	–	–	–	–	–	–	–	–
CN(C)CC(C)(C)c1cccc(OC(=O)NCCCCCCCCN2CCOCC2)c1 [Ex. 1, 3-[(1-dimethylamino-2-methyl)prop-2-yl]-N-[8-(4-morpholinyl)octyl]phenylcarbamate]	–	15	67	–	–	–	470	160	equal or even superior to that of eptastigmine or of physostigmine	16	33	able to reduce the amnesic failure induced by scopolamine	–	–	–
CCCCCCCNC(=O)Oc1ccc2c(c1)[C@]1(C)CCN(C)[C@@H]1N2C [Eptastigmine, heptylcarbamic ester of the eseroline, reference compound]	–	7	25	less powerful	better pharmacokinetic characteristics	–	–	–	–	140	23	–	50	5	reduced side-effects
